Assays:
Assay in all cases: KinomeScan profiling
Assay type in all cases: binding
[1] = molecular target: T1, ABL1(Q252H)-phosphorylated (Homo sapiens, UniProt P00519, Q252H); details: read-out: % control
T1 construct: purchased KinomeScan®
How it was run: (§1)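 At 1 μM in DMSO, compounds are run through a broad 468-member kinase panel. The luminescent read-out is normalised so that vehicle gives 100% and a positive control gives 0%; any kinase falling below 35% is treated as a target.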

[2] = molecular target: T2, BLK (Homo sapiens, UniProt P51451); details: read-out: % control
T2 construct: purchased KinomeScan®
How it was run: as §1

[3] = molecular target: CDK3 (Homo sapiens, UniProt Q00526); details: CDK3, 1 μM; read-out: % control
How it was run: as §1

[4] = molecular target: GRK4 (Homo sapiens, UniProt P32298); details: GRK4, 1 μM; read-out: % control
How it was run: as §1

[5] = molecular target: T3, HUNK (Homo sapiens, UniProt P57058); details: read-out: % control
T3 sequence (P57058 1-714): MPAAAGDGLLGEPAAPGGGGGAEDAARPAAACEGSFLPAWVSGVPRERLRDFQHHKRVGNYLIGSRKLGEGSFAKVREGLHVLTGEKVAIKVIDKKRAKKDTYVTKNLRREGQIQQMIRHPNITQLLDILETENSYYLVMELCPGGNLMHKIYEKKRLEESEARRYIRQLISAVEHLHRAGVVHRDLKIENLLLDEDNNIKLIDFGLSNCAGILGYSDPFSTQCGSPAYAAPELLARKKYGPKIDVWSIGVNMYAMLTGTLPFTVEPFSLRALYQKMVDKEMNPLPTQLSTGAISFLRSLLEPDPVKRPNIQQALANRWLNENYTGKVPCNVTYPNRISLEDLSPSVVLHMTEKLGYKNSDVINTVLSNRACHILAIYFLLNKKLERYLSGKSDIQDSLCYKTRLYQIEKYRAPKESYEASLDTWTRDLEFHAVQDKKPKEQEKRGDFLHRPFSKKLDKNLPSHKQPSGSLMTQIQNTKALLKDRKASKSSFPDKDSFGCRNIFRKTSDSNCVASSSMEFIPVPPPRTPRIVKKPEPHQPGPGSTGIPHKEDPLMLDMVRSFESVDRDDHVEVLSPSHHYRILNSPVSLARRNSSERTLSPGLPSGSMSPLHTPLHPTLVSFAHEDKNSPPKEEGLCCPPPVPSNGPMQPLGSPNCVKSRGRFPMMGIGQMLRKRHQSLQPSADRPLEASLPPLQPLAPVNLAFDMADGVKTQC
How it was run: as §1

[6] = molecular target: T4, JAK1(JH2domain-pseudokinase) (Homo sapiens, UniProt P23458); details: read-out: % control
T4 construct: JAK1(JH2domain-pseudokinase); purchased KinomeScan®
How it was run: as §1

[7] = molecular target: LIMK1 (Homo sapiens, UniProt P53667); details: LIMK1, 1 μM; read-out: % control
How it was run: as §1

[8] = molecular target: MAP4K5 (Homo sapiens, UniProt Q9Y4K4); details: MAP4K5, 1 μM; read-out: % control
How it was run: as §1

[9] = molecular target: T5, NEK3 (Homo sapiens, UniProt P51956); details: NEK3, 1 μM; read-out: % control
T5 sequence (P51956 1-506): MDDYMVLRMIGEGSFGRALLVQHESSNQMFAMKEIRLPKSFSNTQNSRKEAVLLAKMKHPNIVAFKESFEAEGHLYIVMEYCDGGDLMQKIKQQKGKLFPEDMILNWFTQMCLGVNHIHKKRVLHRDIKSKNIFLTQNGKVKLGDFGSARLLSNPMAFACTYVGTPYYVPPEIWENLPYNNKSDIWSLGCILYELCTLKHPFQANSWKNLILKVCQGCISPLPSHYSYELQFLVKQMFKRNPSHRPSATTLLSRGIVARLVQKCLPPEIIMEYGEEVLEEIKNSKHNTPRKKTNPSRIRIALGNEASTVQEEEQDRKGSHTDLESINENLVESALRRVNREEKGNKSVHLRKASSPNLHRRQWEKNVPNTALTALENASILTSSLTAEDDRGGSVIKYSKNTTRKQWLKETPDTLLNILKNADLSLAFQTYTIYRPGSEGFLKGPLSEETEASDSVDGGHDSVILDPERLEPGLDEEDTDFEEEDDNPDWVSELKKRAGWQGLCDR
How it was run: as §1

[10] = molecular target: T6, RPS6KA5(Kin.Dom.2-C-terminal) (Homo sapiens, UniProt O75582); details: read-out: % control
T6 construct: RPS6KA5(Kin.Dom.2-C-terminal)
How it was run: as §1

[11] = molecular target: T7, SNARK (Homo sapiens, UniProt Q9H093); details: read-out: % control
T7 construct: purchased KinomeScan® (panel service)
T7 sequence (Q9H093 1-628): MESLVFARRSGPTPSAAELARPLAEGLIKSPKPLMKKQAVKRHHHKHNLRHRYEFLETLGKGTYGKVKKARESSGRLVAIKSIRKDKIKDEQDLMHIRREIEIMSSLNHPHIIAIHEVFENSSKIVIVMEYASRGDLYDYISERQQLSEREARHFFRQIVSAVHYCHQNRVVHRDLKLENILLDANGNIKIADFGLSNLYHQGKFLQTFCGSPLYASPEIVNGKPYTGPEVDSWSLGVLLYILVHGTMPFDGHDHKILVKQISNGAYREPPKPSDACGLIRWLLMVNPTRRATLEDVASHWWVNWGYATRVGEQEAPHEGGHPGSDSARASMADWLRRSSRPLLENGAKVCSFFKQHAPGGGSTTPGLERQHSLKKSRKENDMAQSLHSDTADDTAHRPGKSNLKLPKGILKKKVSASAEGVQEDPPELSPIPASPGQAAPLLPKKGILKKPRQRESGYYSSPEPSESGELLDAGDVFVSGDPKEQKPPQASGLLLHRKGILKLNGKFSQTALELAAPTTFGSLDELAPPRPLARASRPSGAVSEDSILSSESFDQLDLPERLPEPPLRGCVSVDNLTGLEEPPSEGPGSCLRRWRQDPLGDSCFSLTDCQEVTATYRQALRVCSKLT
How it was run: as §1

[12] = molecular target: p38-alpha (Homo sapiens, UniProt Q16539); details: read-out: % control
How it was run: as §1

Sequence of p38-alpha (Q16539 whole entry): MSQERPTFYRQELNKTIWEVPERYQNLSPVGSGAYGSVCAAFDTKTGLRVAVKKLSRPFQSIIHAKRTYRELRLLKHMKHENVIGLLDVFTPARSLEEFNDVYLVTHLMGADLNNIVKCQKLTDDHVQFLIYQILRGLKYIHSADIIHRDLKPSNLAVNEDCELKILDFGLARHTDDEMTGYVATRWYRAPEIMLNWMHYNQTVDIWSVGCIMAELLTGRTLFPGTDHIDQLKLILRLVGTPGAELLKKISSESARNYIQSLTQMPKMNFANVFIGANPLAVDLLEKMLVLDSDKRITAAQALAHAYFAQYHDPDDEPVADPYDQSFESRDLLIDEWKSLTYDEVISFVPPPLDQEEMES
T6 sequence (O75582 426-687 limits assumed): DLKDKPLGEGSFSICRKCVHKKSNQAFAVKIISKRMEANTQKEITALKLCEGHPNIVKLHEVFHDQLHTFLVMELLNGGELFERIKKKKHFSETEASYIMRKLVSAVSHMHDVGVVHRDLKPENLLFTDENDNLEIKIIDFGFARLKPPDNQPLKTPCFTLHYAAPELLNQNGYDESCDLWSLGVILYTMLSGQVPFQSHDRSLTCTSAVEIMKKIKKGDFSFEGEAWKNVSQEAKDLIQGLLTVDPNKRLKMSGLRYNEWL
Sequence of LIMK1 (P53667 whole entry): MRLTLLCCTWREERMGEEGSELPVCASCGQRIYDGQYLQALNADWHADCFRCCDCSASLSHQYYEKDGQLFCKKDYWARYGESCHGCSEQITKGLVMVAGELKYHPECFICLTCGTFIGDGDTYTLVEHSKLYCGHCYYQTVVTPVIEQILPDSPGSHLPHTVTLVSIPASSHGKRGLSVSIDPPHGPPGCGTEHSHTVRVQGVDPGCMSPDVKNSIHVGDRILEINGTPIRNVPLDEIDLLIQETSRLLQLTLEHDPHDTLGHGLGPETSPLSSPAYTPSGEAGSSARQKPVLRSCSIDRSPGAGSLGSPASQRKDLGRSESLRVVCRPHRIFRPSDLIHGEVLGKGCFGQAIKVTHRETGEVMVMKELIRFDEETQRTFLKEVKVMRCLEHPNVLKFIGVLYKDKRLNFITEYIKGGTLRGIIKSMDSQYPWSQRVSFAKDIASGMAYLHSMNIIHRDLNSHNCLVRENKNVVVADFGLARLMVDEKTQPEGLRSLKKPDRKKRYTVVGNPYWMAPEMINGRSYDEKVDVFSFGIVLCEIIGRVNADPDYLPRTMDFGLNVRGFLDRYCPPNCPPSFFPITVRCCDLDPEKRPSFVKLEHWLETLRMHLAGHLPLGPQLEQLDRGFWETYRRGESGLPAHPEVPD
T2 sequence (P51451 whole entry): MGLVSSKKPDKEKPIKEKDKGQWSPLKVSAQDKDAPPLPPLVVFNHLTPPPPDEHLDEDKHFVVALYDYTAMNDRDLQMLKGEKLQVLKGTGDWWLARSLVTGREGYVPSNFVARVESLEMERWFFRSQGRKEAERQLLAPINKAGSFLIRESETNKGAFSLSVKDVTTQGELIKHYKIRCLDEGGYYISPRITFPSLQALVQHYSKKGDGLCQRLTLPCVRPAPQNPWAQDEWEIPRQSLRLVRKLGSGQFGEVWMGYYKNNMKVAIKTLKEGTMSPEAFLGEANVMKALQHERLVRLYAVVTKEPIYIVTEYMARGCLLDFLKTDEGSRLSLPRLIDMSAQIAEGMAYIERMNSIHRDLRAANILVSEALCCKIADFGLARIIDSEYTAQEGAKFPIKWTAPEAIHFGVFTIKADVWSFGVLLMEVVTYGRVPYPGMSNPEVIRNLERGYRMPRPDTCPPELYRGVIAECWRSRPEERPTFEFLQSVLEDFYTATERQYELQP
T4 sequence (P23458 583-855 limits assumed): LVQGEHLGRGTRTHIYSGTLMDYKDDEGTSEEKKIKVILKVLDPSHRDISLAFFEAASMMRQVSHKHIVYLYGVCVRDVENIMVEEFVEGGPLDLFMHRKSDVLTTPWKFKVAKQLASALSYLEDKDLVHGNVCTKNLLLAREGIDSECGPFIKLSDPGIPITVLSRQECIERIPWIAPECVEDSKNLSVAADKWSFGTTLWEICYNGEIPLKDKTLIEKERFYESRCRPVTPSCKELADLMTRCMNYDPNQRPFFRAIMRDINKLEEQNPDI
Sequence of CDK3 (Q00526 whole entry): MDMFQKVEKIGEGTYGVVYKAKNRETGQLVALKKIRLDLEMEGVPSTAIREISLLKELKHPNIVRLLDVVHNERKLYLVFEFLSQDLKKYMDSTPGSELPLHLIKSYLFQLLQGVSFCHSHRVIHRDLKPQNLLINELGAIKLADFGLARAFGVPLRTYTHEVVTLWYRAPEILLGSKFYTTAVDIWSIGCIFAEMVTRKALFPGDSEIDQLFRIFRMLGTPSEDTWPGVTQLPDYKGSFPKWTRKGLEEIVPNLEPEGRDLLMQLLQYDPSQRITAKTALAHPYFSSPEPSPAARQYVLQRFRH
Sequence of GRK4 (P32298 whole entry): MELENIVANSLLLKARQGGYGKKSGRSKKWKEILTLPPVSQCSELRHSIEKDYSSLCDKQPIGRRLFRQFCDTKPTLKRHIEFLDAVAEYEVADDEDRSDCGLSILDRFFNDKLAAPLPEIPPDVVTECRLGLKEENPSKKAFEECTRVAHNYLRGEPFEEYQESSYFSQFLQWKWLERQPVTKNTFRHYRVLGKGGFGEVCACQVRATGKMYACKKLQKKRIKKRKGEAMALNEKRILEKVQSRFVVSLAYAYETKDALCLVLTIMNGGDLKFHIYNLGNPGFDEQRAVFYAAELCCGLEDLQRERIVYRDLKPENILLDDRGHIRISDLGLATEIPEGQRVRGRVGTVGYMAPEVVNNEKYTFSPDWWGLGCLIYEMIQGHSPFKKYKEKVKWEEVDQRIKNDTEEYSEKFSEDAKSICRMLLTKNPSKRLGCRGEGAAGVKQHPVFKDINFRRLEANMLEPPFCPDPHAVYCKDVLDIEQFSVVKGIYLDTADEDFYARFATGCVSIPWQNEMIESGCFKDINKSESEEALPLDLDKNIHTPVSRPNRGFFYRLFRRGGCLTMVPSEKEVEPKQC
Sequence of MAP4K5 (Q9Y4K4 whole entry): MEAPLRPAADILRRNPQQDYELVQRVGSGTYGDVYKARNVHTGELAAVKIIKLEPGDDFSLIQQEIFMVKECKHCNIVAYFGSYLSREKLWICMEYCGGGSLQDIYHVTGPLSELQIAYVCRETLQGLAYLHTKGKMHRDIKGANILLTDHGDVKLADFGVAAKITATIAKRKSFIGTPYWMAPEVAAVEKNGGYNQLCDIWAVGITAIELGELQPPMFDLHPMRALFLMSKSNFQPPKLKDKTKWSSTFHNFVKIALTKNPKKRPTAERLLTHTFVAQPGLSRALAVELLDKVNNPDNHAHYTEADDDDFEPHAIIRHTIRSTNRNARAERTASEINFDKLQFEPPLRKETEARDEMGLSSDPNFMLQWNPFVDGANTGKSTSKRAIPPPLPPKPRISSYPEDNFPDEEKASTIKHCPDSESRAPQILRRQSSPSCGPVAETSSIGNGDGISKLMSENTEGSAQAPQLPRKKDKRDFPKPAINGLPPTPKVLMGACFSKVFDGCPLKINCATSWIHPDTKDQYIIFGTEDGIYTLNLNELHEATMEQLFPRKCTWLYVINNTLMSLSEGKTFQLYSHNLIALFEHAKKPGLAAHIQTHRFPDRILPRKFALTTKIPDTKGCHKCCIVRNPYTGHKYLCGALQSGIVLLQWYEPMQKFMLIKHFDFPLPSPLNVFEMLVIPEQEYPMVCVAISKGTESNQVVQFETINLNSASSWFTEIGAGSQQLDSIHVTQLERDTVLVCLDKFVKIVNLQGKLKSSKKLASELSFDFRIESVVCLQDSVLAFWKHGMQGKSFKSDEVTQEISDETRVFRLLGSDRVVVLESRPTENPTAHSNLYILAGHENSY

Row | SMILES | remaining binding at 1 µM [1] [%] | remaining binding at 1 µM [2] [%] | remaining binding at 1 µM [3] [%] | remaining binding at 1 µM [4] [%] | remaining binding at 1 µM [5] [%] | remaining binding at 1 µM [6] [%] | remaining binding at 1 µM [7] [%] | remaining binding at 1 µM [8] [%] | remaining binding at 1 µM [9] [%] | remaining binding at 1 µM [10] [%] | remaining binding at 1 µM [11] [%] | remaining binding at 1 µM [12] [%]
1 | O=C(c1ccc(-c2cnc3[nH]cc(Cl)c3c2NC2CCCC2)cc1)N1CCC(N2CCOCC2)CC1 [Compound 101, (4-(3-chloro-4-(cyclopentylamino)-1H-pyrrolo[2,3-b]pyridin-5-yl)phenyl)(4-morpholinopiperidin-1-yl)methanone] | 100 | 100 | 97 | 14 | 100 | 47 | 76 | 88 | 95 | 96 | 33 | 100
2 | CNc1c(-c2cnn([C@H]3CCN(C(C)=O)C[C@@H]3F)c2)cnc2[nH]cc(Cl)c12 [Compound 77, 1-((3S,4S)-4-(4-(3-chloro-4-(methylamino)-1H-pyrrolo[2,3-b]pyridin-5-yl)-1H-pyrazol-1-yl)-3-fluoropiperidin-1-yl)ethan-1-one] | 95 | 100 | 95 | 21 | 100 | 57 | 100 | 77 | 68 | 100 | 96 | 100
3 | CNc1c(-c2ccc(C(=O)N3CCC(N4CCOCC4)CC3)cc2)cnc2[nH]cc(Cl)c12 [Compound 96, (4-(3-chloro-4-(methylamino)-1H-pyrrolo[2,3-b]pyridin-5-yl)phenyl)(4-morpholinopiperidin-1-yl)methanone] | 100 | 100 | 89 | 28 | 100 | 94 | 100 | 39 | 82 | 100 | 64 | 92

— patent US12275731B2, “Azaindole inhibitors of wild-type and mutant forms of LRRK2” (DANA-FARBER CANCER INSTITUTE, INC., priority 2018, dated 2025)
